Common to all, as to format: binding
Assay [1] deals with T1, CtKti12 (Thermochaetoides thermophila, UniProt G0SHI1).
T1 construct: gene CTHT_0070100; full-length, codon-optimized ORF in pET24d (NcoI/XhoI), purified from bacteria; PDB 6QP0 (earlier work) covers the ATPase domain only
T1 sequence (G0SHI1 1-378): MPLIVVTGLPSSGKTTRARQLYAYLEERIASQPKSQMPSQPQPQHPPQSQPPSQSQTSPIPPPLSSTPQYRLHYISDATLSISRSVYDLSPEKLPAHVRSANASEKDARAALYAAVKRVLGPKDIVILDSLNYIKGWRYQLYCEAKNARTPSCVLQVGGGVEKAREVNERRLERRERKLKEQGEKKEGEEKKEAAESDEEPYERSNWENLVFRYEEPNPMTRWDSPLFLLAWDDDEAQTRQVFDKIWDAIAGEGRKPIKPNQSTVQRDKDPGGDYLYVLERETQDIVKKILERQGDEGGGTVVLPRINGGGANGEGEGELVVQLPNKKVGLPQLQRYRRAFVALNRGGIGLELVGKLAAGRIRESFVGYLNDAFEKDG
Kind of assay: thermal shift assay (SYPRO Orange). The note with it: 1 mM ATP, 2 mM MgCl2, 20 mM Tris-HCl pH 7.5, 150 mM NaCl, 2 mM DTT; 0.6 °C/min.

Assay [2] has as its target T1, CtKti12. Kind of assay: fluorescence polarization, one-site fit. On the technique in general: Polarisation of emitted light reports the rotation of a fluorescent probe.
For assay [3], the target named is T2, CtKti12 (Thermochaetoides thermophila, UniProt G0SHI1, K14V).
T2 construct: gene CTHT_0070100; full-length, codon-optimized ORF in pET24d (NcoI/XhoI), purified from bacteria; PDB 6QP0 (earlier work) covers the ATPase domain only
Description: fluorescence polarization, one-site fit.

Assay [4] has as its target T3, CtKti12 (Thermochaetoides thermophila, UniProt G0SHI1, K14L).
T3 construct: gene CTHT_0070100; full-length, codon-optimized ORF in pET24d (NcoI/XhoI), purified from bacteria; PDB 6QP0 (earlier work) covers the ATPase domain only
Description: fluorescence polarization, one-site fit.

The target of assay [5] is T4, CtKti12 (Thermochaetoides thermophila, UniProt G0SHI1, K14A).
T4 construct: gene CTHT_0070100; full-length, codon-optimized ORF in pET24d (NcoI/XhoI), purified from bacteria; PDB 6QP0 (earlier work) covers the ATPase domain only
Kind of assay: fluorescence polarization, one-site fit.

T3 sequence (G0SHI1 entry or part of it K14L): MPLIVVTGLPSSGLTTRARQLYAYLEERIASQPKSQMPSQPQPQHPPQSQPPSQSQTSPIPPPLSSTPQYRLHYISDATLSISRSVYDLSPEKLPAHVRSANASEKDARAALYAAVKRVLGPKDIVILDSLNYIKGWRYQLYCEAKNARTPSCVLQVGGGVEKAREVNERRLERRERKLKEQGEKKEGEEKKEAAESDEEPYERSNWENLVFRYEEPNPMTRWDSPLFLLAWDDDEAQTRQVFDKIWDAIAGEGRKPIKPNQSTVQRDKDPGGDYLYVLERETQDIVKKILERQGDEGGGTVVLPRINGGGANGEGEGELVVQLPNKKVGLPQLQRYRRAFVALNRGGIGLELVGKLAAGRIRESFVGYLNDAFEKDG
T2 sequence (G0SHI1 entry or part of it K14V): as the sequence (G0SHI1 entry or part of it K14L) above, with L14V counted along it
T4 sequence (G0SHI1 entry or part of it K14A): as the sequence (G0SHI1 entry or part of it K14L) above, with L14A counted along it

Take `Nc1ncnc2c1ncn2[C@@H]1O[C@H](COP(=O)(O)OP(=O)(O)OP(=O)(O)O)[C@@H](O)[C@H]1O` [ATP]: the “melting point without ATP to with ATP” value at CtKti12 [1] lay within 46.0 to 50.0 °C.

Broadly, the Kd is the free concentration of one partner at which half of the binding sites on the other are occupied at equilibrium, for simple one-to-one binding. A higher Kd goes with a looser complex. As for `CNc1ccccc1C(=O)O[C@H]1[C@@H](O)[C@H](n2cnc3c(N)ncnc32)O[C@@H]1CO[P@@](=O)(O)O[P@](=O)(O)OP(=O)(O)O` [MANT-ATP], the dissociation constant Kd was 1.5 ± 0.2 µM at CtKti12 [2], over 100 µM on CtKti12 [3], 25 ± 2.4 µM on CtKti12 [4] and over 100 µM on CtKti12 [5].

For the origin of these results see paper PMC7363723, “Fungal Kti12 proteins display unusual linker regions and unique ATPase p-loops” (Current Genetics, 2020).
